Measured values: patent US20100331269A1, “TRITERPENES DERIVATIVES AND USES THEREOF AS ANTITUMOR AGENTS OR ANTI-INFLAMMATORY AGENTS” (priority 2006, published 2010)

Columns and labels:
[1] = test system: A-549 human lung carcinoma cells; assay: Cytotoxicity, resazurin metabolism assay, A-549; assay type: cell-based; settings: 48 h, mean ± SD
In short: (§1)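 Cells plated at 5×10^3/well, adhered 16 h, then exposed to increasing compound concentrations (DMSO) for 48 h. Viability by resazurin reduction, fluorescence ex 530/em 590 nm, blank-subtracted versus control wells; IC50 as mean±SD from three experiments in triplicate.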

[2] = test system: DLD-1 human colorectal adenocarcinoma cells; assay: Cytotoxicity, resazurin metabolism assay, DLD-1; assay type: cell-based; settings: 48 h, mean ± SD
In short: as §1

[3] = test system: B16-F1 mouse melanoma cells; assay: Cytotoxicity, resazurin metabolism assay, B16-F1; assay type: cell-based; settings: 48 h, mean ± SD
In short: as §1

[4] = test system: WS-1 human normal skin fibroblasts; assay: Cytotoxicity, resazurin metabolism assay, WS-1; assay type: cell-based; settings: 48 h, mean ± SD
In short: as §1

[5] = test system: A-549 cells; assay: Cytotoxicity, Hoechst DNA assay, A-549; assay type: cell-based, human; settings: ± SD
In short: (§2)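 Cells grown at 37 °C, 5% CO2, in MEM with 10% FBS. Compound cytotoxicity was measured by Hoechst DNA staining. Activity is expressed as IC50, the concentration inhibiting 50% of cell growth.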

[6] = test system: DLD-1 cells; assay: Cytotoxicity, Hoechst DNA assay, DLD-1; assay type: cell-based, human; settings: ± SD
In short: as §2

[7] = test system: PA-1 human ovary teratocarcinoma cells; assay: Cytotoxicity, resazurin metabolism assay, PA-1; assay type: cell-based; settings: mean ± SD
From the text: (§3) Human lung carcinoma (A-549), human colon adenocarcinoma (DLD-1), human normal fibroblasts (WS1), mice melanoma (B16-F1), Human glioma (U-251), Human hepatocellular carcinoma (HEP G2), Human prostate adenocarcinoma (PC-3), Human ovary teratocarcinoma metastatic (PA-1), Human breast adenocarcinona metastatic (MDA-MB-231), Human breast adenocarcinoma (MCF-7) and Human malignant melanoma (SK-MEL-2) cell lines were obtained from the American Type Culture Collection (ATCC). All cell lines were cultured in minimum essential medium containing Earle's salts and L-glutamine (Mediatech Cellgro, Va.), to which was added 10% fetal bovine serum (Hyclone), vitamins (1×), penicillin (100 I.U./mL) and streptomycin (100 μg/mL), essential amino acids (1×) and sodium pyruvate (1×) (Mediatech Cellgro, Va.). Cells were kept at 37° C. in a humidified environment containing 5% CO2.
(§4) Exponentially growing cells were plated in 96-well microplates (Costar, Corning Inc.) at a density of 5×10^3 cells per well in 100 μL of culture medium and were allowed to adhere for 16 hours before treatment. Increasing concentrations of each compound in DMSO (Sigma-Aldrich) were then added (100 μL per well) and the cells were incubated for 48 h. […] Cytotoxicity was assessed using resazurin (O'Brien, J. et al., Eur. J. Biochem. 2000, 267, 5421-5426) on an automated 96-well Fluoroskan Ascent F1™ plate reader (Labsystems) using excitation and emission wavelengths of 530 nm and 590 nm, respectively. Fluorescence was proportional to the cellular metabolic activity in each well. Survival percentage was defined as the fluorescence in experimental wells compared to that in control wells after subtraction of blank values. Each experiment was carried out three times in triplicata. IC50 results were expressed as mean±standard deviation.
(§5) Compounds presented in Table 5 below were also tested in the following tumour cell lines: U-251 (Human glioma), HEP G2 (Human hepatocellular carcinoma), PC-3 (Human prostate adenocarcinoma), PA-1 (Human ovary teratocarcinoma metastatic), MDA-MB-231 (Human breast adenocarcinona metastatic), MCF-7 (Human breast adenocarcinoma) and SK-MEL-2 (Human malignant melanoma).

[8] = test system: U-251 human glioma cells; assay: Cytotoxicity, resazurin metabolism assay, U-251; assay type: cell-based; settings: mean ± SD
From the text: as §3, §4, §5

[9] = Toxicity of treatment by body weight of tumour-bearing mice; settings: Lewis lung cancer-bearing mice, IP treatment, day 13
From the text: Individual dose were based on the body weight of each mouse.

[10] = Determination of the maximum tolerated dose (MTD) after a single IP injection; assay type: in vivo, mice; settings: for CSS Closed eyes / CSS Diarrhea / CSS Lethargy / CSS Rough coat / CSS Total / Number of deaths: 5 mice
Procedure: Groups of five mice (Charles River) received a single IP injection of 3-O-α-L-rhamnopyranoside betulinic acid (22) in DMSO at doses of 50, 100, 250 and 500 mg/kg of body weight. […] A group of five control mice received the vehicle (DMSO). […] For each animal, a score was calculated based on the absence (value 0) or presence (value 1) of diarrhoea, lethargy, rough coat and closed eyes. A clinical state score (CSS) was then calculated per group by summing individual scores. All the mice were weighed daily during 3 days following the injection. The maximal weight loss was determined 24 hours and 3 days following the injection. The MTD was defined as the highest single dose that met all the following criteria: 1) zero death per group; 2) maximal weight loss 20% in non-tumour bearing animals; and 3) CSS value lower than 15.

## C=C(C)[C@@H]1CC[C@]2(C(=O)O)CC[C@]3(C)[C@H](CC[C@@H]4[C@@]5(C)CC[C@H](O[C@@H]6O[C@@H](C)[C@H](O)[C@@H](O)[C@H]6O)C(C)(C)[C@@H]5CC[C@]43C)[C@@H]12 [Compound 22, 3-O-α-L-Rhamnopyranoside of betulinic acid]
[1]
  IC50: 2.6 ± 0.6 µM
[2]
  IC50: 3.9 ± 0.4 µM
[3]
  IC50: 3.9 ± 0.4 µM
[4]
  IC50: 31 ± 3 µM
[5]
  IC50: 2.6 ± 0.3 µM
[6]
  IC50: 3.4 ± 0.5 µM
[7]
  IC50: 8 ± 1 µM
[8]
  IC50: 20 ± 2 µM
[9]
  Toxicity / body weight loss compared with controls: did not show any sign of toxicity or body weight loss
[10]; 50 mg/kg single IP
  Max. weight loss after 24 hours: 11%
  Max. weight loss after 3 days: 0%
  CSS Closed eyes: 0
  CSS Diarrhea: 0
  CSS Lethargy: 0
  CSS Rough coat: 0
  CSS Total: 0
  Number of deaths: 0
[10]; 100 mg/kg single IP
  Max. weight loss after 24 hours: 14%
  Max. weight loss after 3 days: 0%
  CSS Closed eyes: 0
  CSS Diarrhea: 0
  CSS Lethargy: 0
  CSS Rough coat: 0
  CSS Total: 0
  Number of deaths: 0
[10]; 250 mg/kg single IP
  Max. weight loss after 24 hours: 9%
  Max. weight loss after 3 days: 0%
  CSS Closed eyes: 5
  CSS Diarrhea: 0
  CSS Lethargy: 0
  CSS Rough coat: 5
  CSS Total: 10
  Number of deaths: 0
[10]; 500 mg/kg single IP
  Max. weight loss after 24 hours: 11%
  Max. weight loss after 3 days: 0%
  Rough coat and closed eyes observed, share of the mice: 100%
  CSS Closed eyes: 5
  CSS Diarrhea: 5
  CSS Lethargy: 2
  CSS Rough coat: 5
  CSS Total: 17
  Number of deaths: 0
[10]; 60 kg human
  Calculated dose for an average human weighting 60 kg: 139.8 mg
[10]; all tested doses (50-500 mg/kg), single IP
  Body weight loss after 24 h: 9-14%
[10]; all tested doses, single IP
  Mortality: no mortality
  Weight loss after 3 days (returned to initial weight): 0%
[10]; human equivalent dose divided by 10
  Calculated MTD (human, after security factor of 10): 2.33 mg/kg
[10]; mice, single IP injection in DMSO
  MTD (maximum tolerated dose): 250 mg/kg
[10]; mouse MTD 250 mg/kg divided by conversion factor 12.3
  MTD equivalent in human (human equivalent dose): 20.33 mg/kg
